Laboratory results as given in US9668480B2, “Method for treating plants against fungi resistant to fungicides using carboxamide or thiocarboxamide derivatives” (priority 2012, dated 2017).
Several values for one entry are separate records, joined by “and”; a condition that tells them apart may be missing. Identical values can stand only once.

How the values were obtained:
[1] = target: succinate-ubiquinone redutase (SDH) of mitochondria from the 3884 strain (SDHB P225H substitution) (Botrytis cinerea, UniProt A0A384J5E4+D2IH01+D2IH03, P225H); test: SDH activity of extracted mitochondria by DCPIP reduction at 595 nm, P225H mutant; type: biochemical; set-up: key to Classification: Classification A pI50 increase or stable compared to WT; Classification B pI50 decrease inferior or equal to 0.6 compared to WT; Classification C pI50 decrease superior to 0.6 compared to WT; conditions: for IC50 / PI50 P225H3884: mitochondria of 3884 strain, 20 min preincubation, -log 10 of concentration inhibiting DCPIP reduction by 50%; for IC50: read-out: PI50 P225H3884 (converted); for Classification: pI50 on P225H 3884 mitochondria compared to WT
Protocol: (§1) Compounds activity was investigated at the level of the mitochondrial target and compared to other SDH inhibitors.
(§2) Mitochondria were extracted according to Cramer et al. (1983) Analytical biochemistry, 128, 384-392 and the mycelium prepared according to Fritz et al., (1993). Agronomie 13, 225-230 except that spore's incubation was pursued for 48 hours. SDH activity was measured by following DCPIP (2,6-dichlorphenol-indophenol) reduction at 595 nm overtime. To test SDH inhibitors, mitochondria were incubated with test compounds for 20 min prior the initiation of the reaction.

[2] = target: succinate-ubiquinone redutase (SDH) of mitochondria from Bo47 WT strain (Botrytis cinerea, UniProt A0A384J5E4+D2IH01+D2IH03); test: SDH activity of extracted mitochondria by DCPIP reduction at 595 nm, wild type; type: biochemical; conditions: 20 min preincubation, -log 10 of concentration inhibiting DCPIP reduction by 50%; for IC50: PI50 Bo47 (Wild type)
Protocol: as §1, §2

[3] = tested on: Botrytis cinerea boscalid-resistant strains with SDHB_P225H, F substitutions; test: Sensitivity assay in microtiter plate, resistance factor of boscalid-resistant field strains versus Bo47 WT; type: cell-based
Protocol: Four to five strains with SDHB_P225H, F substitutions were retained for subsequent sensitivity assays in microtiter plate. IC50 of test compounds were determined and resistance factors (RF) calculated as the ratio of IC50 mutant/IC50 WT (Bo47). […] Strains giving a RF below 10 were considered sensitive, moderately resistant when RF was comprised between 10 and 50, resistant above 50.

[4] = mutation P225F, BOTRCI strain 08BC1554
[5] = mutation P225F, BOTRCI strain 08BC1557
[6] = mutation P225F, BOTRCI strain 08BC1558
[7] = mutation P225F, BOTRCI strain 09BC2615
[8] = mutation P225H, BOTRCI strain 09BC2640
[9] = mutation P225H, BOTRCI strain 09BC2648
[10] = mutation P225H, BOTRCI strain 09BC2649
[11] = mutation P225H, BOTRCI strain 09BC2652

succinate-ubiquinone redutase (SDH) of mitochondria from the 3884 strain (SDHB P225H substitution), sequence (A0A384J5E4 30-300, stated change not applied): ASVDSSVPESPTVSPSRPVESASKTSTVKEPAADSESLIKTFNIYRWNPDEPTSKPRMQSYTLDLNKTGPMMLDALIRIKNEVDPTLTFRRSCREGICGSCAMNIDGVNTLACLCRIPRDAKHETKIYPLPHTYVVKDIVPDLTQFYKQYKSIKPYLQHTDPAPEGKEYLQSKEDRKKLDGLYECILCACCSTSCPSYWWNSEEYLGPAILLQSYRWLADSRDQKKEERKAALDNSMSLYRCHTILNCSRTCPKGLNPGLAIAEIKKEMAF
succinate-ubiquinone redutase (SDH) of mitochondria from the 3884 strain (SDHB P225H substitution), sequence (D2IH03 46-189, stated change not applied): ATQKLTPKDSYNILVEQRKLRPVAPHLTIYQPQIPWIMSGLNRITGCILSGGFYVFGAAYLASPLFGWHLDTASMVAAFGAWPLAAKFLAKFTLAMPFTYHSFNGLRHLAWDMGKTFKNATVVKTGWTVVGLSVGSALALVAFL
succinate-ubiquinone redutase (SDH) of mitochondria from the 3884 strain (SDHB P225H substitution), sequence (D2IH01 64-192, stated change not applied): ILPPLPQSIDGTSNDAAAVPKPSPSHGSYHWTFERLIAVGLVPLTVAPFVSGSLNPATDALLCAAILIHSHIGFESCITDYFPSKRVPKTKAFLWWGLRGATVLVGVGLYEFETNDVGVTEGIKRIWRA
succinate-ubiquinone redutase (SDH) of mitochondria from the 3884 strain (SDHB P225H substitution), sequence (A0A384K456 34-647 partner): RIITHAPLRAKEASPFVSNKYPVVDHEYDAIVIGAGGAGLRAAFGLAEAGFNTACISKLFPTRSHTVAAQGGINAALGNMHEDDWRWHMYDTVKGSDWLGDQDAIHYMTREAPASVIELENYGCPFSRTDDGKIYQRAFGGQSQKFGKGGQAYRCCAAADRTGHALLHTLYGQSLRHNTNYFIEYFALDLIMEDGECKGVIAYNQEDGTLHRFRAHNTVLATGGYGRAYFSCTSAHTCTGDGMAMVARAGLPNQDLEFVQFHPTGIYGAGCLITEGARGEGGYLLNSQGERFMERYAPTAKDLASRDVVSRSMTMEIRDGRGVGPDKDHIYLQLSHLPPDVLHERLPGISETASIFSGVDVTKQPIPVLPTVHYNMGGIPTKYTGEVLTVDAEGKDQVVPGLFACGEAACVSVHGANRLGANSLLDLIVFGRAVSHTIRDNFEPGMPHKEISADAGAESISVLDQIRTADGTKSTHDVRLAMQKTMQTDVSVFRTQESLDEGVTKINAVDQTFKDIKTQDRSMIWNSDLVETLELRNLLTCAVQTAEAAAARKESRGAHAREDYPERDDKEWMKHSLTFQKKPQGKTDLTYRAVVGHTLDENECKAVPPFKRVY
succinate-ubiquinone redutase (SDH) of mitochondria from Bo47 WT strain, sequence (A0A384K456 entry or part of it): as the sequence (A0A384K456 34-647 partner) above
succinate-ubiquinone redutase (SDH) of mitochondria from Bo47 WT strain, sequence (D2IH03 entry or part of it): as the sequence (D2IH03 46-189, stated change not applied) above
succinate-ubiquinone redutase (SDH) of mitochondria from Bo47 WT strain, sequence (A0A384J5E4 entry or part of it): as the sequence (A0A384J5E4 30-300, stated change not applied) above
succinate-ubiquinone redutase (SDH) of mitochondria from Bo47 WT strain, sequence (D2IH01 entry or part of it): as the sequence (D2IH01 64-192, stated change not applied) above

Cn1nc(C(F)F)c(C(=O)N(Cc2c(Cl)cccc2C(F)(F)F)C2CC2)c1F [Compound A17, N-[2-chloro-6-(trifluoromethyl)benzyl]-N-cyclopropyl-3-(difluoromethyl)-5-fluoro-1-methyl-1H-pyrazole-4-carboxamide]
IC50 [1]: 3.16 nM | Classification [1]: A | IC50 [2]: 10 nM

Cn1cc(C(=O)Nc2ccccc2-c2cc(F)c(F)c(F)c2)c(C(F)F)n1 [Fluxapyroxad]
PI50 P225H3884 [1]: 6.2 | Classification [1]: C (Classification C pI50 decrease superior to 0.6 compared to WT) | resistance factor (RF), ratio of IC50 mutant/IC50 WT (Bo47) [3, 4]: 197.2 | resistance factor (RF), ratio of IC50 mutant/IC50 WT (Bo47) [3, 5]: 135.6 | resistance factor (RF), ratio of IC50 mutant/IC50 WT (Bo47) [3, 6]: 131.5 | resistance factor (RF), ratio of IC50 mutant/IC50 WT (Bo47) [3, 7]: 89.1 | resistance factor (RF), ratio of IC50 mutant/IC50 WT (Bo47) [3, 8]: 103.0 | resistance factor (RF), ratio of IC50 mutant/IC50 WT (Bo47) [3, 9]: 127.9 | resistance factor (RF), ratio of IC50 mutant/IC50 WT (Bo47) [3, 10]: 134.2 | resistance factor (RF), ratio of IC50 mutant/IC50 WT (Bo47) [3, 11]: 104.7 | PI50 Bo47 (Wild type) [2]: 8.0

CC(C)c1cccc(F)c1CN(C(=O)c1c(C(F)F)nn(C)c1F)C1CC1 [Compound A10, N-cyclopropyl-3-(difluoromethyl)-5-fluoro-N-(2-fluoro-6-isopropylbenzyl)-1-methyl-1H-pyrazole-4-carboxamide]
IC50 [1]: 6.31 nM | Classification [1]: B (Classification B pI50 decrease inferior or equal to 0.6 compared to WT) | IC50 [2]: 3.98 nM

Cn1nc(C(F)F)c(C(=O)N(Cc2c(C(F)(F)F)ccc(Cl)c2F)C2CC2)c1F [Compound A18, N-[3-chloro-2-fluoro-6-(trifluoromethyl)benzyl]-N-cyclopropyl-3-(difluoromethyl)-5-fluoro-1-methyl-1H-pyrazole-4-carboxamide]
IC50 [1]: 6.31 nM | Classification [1]: A | activity on strains with P225 substitutions compared with wild type strain ([3]; strains with P225 substitutions vs wild type): always more active on strains with P225 substitutions than on wild type strain | IC50 [2]: 15.8 nM

CCc1ccc(F)cc1CN(C(=O)c1c(C(F)F)nn(C)c1F)C1CC1 [Compound A6, N-cyclopropyl-3-(difluoromethyl)-N-(2-ethyl-5-fluorobenzyl)-5-fluoro-1-methyl-1H-pyrazole-4-carboxamide]
IC50 [1]: 2.51 nM | Classification [1]: A | IC50 [2]: 7.94 nM

Cn1nc(C(F)F)c(C(=O)N(Cc2cc(F)ccc2C2CC2)C2CC2)c1F [Compound A8, N-cyclopropyl-N-(2-cyclopropyl-5-fluorobenzyl)-3-(difluoromethyl)-5-fluoro-1-methyl-1H-pyrazole-4-carboxamide]
IC50 [1]: 3.16 nM | Classification [1]: A | IC50 [2]: 7.94 nM

Cn1nc(C(F)F)c(C(=O)N(Cc2ccccc2[Si](C)(C)C)C2CC2)c1F [Compound A22, N-cyclopropyl-3-(difluoromethyl)-5-fluoro-1-methyl-N-[2-(trimethylsilyl)benzyl]-1H-pyrazole-4-carboxamide]
IC50 [1]: 3.16 nM | Classification [1]: A | IC50 [2]: 3.98 nM

Cn1nc(C(F)F)c(C(=O)N(Cc2cc(F)ccc2C2CCCC2)C2CC2)c1F [Compound A9, N-(2-cyclopentyl-5-fluorobenzyl)-N-cyclopropyl-3-(difluoromethyl)-5-fluoro-1-methyl-1H-pyrazole-4-carboxamide]
IC50 [1]: 3.16 nM | Classification [1]: A | IC50 [2]: 5.01 nM

Cc1ccc(C(F)(F)F)c(CN(C(=O)c2c(C(F)F)nn(C)c2F)C2CC2)c1 [Compound A16, N-cyclopropyl-3-(difluoromethyl)-5-fluoro-1-methyl-N-[5-methyl-2-(trifluoromethyl)benzyl]-1H-pyrazole-4-carboxamide]
IC50 [1]: 5.01 nM | Classification [1]: A | IC50 [2]: 20 nM

CC(C)c1ccc(F)cc1CN(C(=O)c1c(C(F)F)nn(C)c1F)C1CC1 [Compound A7, N-cyclopropyl-3-(difluoromethyl)-5-fluoro-N-(5-fluoro-2-isopropylbenzyl)-1-methyl-1H-pyrazole-4-carboxamide]
IC50 [1]: 1.58 nM | Classification [1]: A | IC50 [2]: 3.98 nM

Cn1nc(C(F)F)c(C(=O)N(Cc2ccccc2C2CC2)C2CC2)c1F [Compound A2, N-cyclopropyl-N-(2-cyclopropylbenzyl)-3-(difluoromethyl)-5-fluoro-1-methyl-1H-pyrazole-4-carboxamide]
IC50 [1]: 2.51 nM | Classification [1]: A | IC50 [2]: 6.31 nM

Cn1nc(C(F)F)c(C(=O)N(Cc2ccccc2C(C)(C)C)C2CC2)c1F [Compound A3, N-(2-tert-butylbenzyl)-N-cyclopropyl-3-(difluoromethyl)-5-fluoro-1-methyl-1H-pyrazole-4-carboxamide]
resistance factor (RF), ratio of IC50 mutant/IC50 WT (Bo47) [3, 4]: 1.8 | resistance factor (RF), ratio of IC50 mutant/IC50 WT (Bo47) [3, 5]: 1.2 | resistance factor (RF), ratio of IC50 mutant/IC50 WT (Bo47) [3, 6]: 2.2 | resistance factor (RF), ratio of IC50 mutant/IC50 WT (Bo47) [3, 7]: 1.0 | resistance factor (RF), ratio of IC50 mutant/IC50 WT (Bo47) [3, 8]: 0.9 | resistance factor (RF), ratio of IC50 mutant/IC50 WT (Bo47) [3, 9]: 1.0 | resistance factor (RF), ratio of IC50 mutant/IC50 WT (Bo47) [3, 10]: 1.7 | resistance factor (RF), ratio of IC50 mutant/IC50 WT (Bo47) [3, 11]: 1.1

Cc1ccc(C(C)(C)C)c(CN(C(=O)c2c(C(F)F)nn(C)c2F)C2CC2)c1 [Compound A14, N-(2-tert-butyl-5-methylbenzyl)-N-cyclopropyl-3-(difluoromethyl)-5-fluoro-1-methyl-1H-pyrazole-4-carboxamide]
IC50 [1]: 3.16 nM | Classification [1]: A | IC50 [2]: 5.01 nM

CC(C)C1C2CCC1c1c(NC(=O)c3cn(C)nc3C(F)F)cccc12 (stereo not shown) [Isopyrazam]
PI50 P225H3884 [1]: 7.2 | Classification [1]: C (Classification C pI50 decrease superior to 0.6 compared to WT) | resistance factor (RF), ratio of IC50 mutant/IC50 WT (Bo47) [3, 4]: 48.4 | resistance factor (RF), ratio of IC50 mutant/IC50 WT (Bo47) [3, 5]: 42.9 | resistance factor (RF), ratio of IC50 mutant/IC50 WT (Bo47) [3, 6]: 37.9 | resistance factor (RF), ratio of IC50 mutant/IC50 WT (Bo47) [3, 7]: 32.8 | resistance factor (RF), ratio of IC50 mutant/IC50 WT (Bo47) [3, 8]: 19.7 | resistance factor (RF), ratio of IC50 mutant/IC50 WT (Bo47) [3, 9]: 25.1 | resistance factor (RF), ratio of IC50 mutant/IC50 WT (Bo47) [3, 10]: 30.7 | sensitivity class of strains by RF ([3]; strains harboring P225H and F substitutions): moderately resistant (moderately resistant when RF was comprised between 10 and 50) | PI50 Bo47 (Wild type) [2]: 8 and 8.2

Cn1nc(C(F)F)c(C(=O)N(Cc2cc(Cl)ccc2C(F)(F)F)C2CC2)c1F [Compound A15, N-[5-chloro-2-(trifluoromethyl)benzyl]-N-cyclopropyl-3-(difluoromethyl)-5-fluoro-1-methyl-1H-pyrazole-4-carboxamide]
IC50 [1]: 6.31 nM | Classification [1]: A | IC50 [2]: 15.8 nM

CC(C)CC(C)c1sccc1NC(=O)c1cn(C)nc1C(F)(F)F (stereo not shown) [Penthiopyrad, reference compound]
IC50 [1]: 501 nM | Classification [1]: C (Classification C pI50 decrease superior to 0.6 compared to WT) | IC50 [2]: 15.8 nM

CC(C)c1ccccc1CN(C(=S)c1c(C(F)F)nn(C)c1F)C1CC1 [Compound A20, N-cyclopropyl-3-(difluoromethyl)-5-fluoro-N-(2-isopropylbenzyl)-1-methyl-1H-pyrazole-4-carbothioamide]
IC50 [1]: 31.6 nM | Classification [1]: A | IC50 [2]: 631 nM

CCc1ccccc1CN(C(=O)c1c(C(F)F)nn(C)c1F)C1CC1 [Compound A21, N-cyclopropyl-3-(difluoromethyl)-N-(2-ethylbenzyl)-5-fluoro-1-methyl-1H-pyrazole-4-carboxamide]
IC50 [1]: 2.51 nM | Classification [1]: A | IC50 [2]: 10 nM and 31.6 nM

CC(C)c1ccc(Cl)cc1CN(C(=O)c1c(C(F)F)nn(C)c1F)C1CC1 [Compound A5, N-(5-chloro-2-isopropylbenzyl)-N-cyclopropyl-3-(difluoromethyl)-5-fluoro-1-methyl-1H-pyrazole-4-carboxamide]
IC50 [1]: 1.26 nM | Classification [1]: A | IC50 [2]: 6.31 nM

O=C(Nc1ccccc1-c1ccc(Cl)cc1)c1cccnc1Cl [Boscalid, reference compound]
IC50 [1]: 5010 nM | Classification [1]: C (Classification C pI50 decrease superior to 0.6 compared to WT) | IC50 [2]: 39.8 nM

CC(C)c1ccccc1CN(C(=O)c1c(C(F)F)nn(C)c1F)C1CC1 [Compound A1, N-cyclopropyl-3-(difluoromethyl)-5-fluoro-N-(2-isopropylbenzyl)-1-methyl-1H-pyrazole-4-carboxamide]
IC50 [1]: 3.16 nM | Classification [1]: A | IC50 [2]: 12.6 nM

Cc1ccc(C(C)C)c(CN(C(=O)c2c(C(F)F)nn(C)c2F)C2CC2)c1 [Compound A12, N-cyclopropyl-3-(difluoromethyl)-5-fluoro-N-(2-isopropyl-5-methylbenzyl)-1-methyl-1H-pyrazole-4-carboxamide]
IC50 [1]: 1 nM | Classification [1]: A | IC50 [2]: 3.98 nM
